Test results from patent US20120277239A1, “Compositions and Methods for Improving Night Vision” (ALPHA SYNERGY DEVELOPMENT INC., priority 2011, published 2012).
Where a name gives a salt, the structure may show the parent alone. Read-outs that look alike come from different tables or passages of the source. One block for each compound: values may come before it.

What was measured:
[1] = cited from earlier work; for side effects upon application: in vivo; for floppy iris syndrome: systemic or topical α1-adrenoceptor antagonist (Oshika et al)
pupil size in dim light = details: cited from earlier work
conjunctival hyperemia = details: bunazosin at 0.3%; cited from earlier work
intraocular pressure = details: bunazosin at 0.3%; measured 6 hours post instillation; cited from earlier work
pupil = details: bunazosin at 0.3%; cited from earlier work
[2] = pH 7.1; with added constituents of a balanced salt solution
Description: The terms “salt” and “constituent of a balanced salt solution” are used interchangeably for the purposes of the present invention. They are a subset of agents that improve solubility of the inventive formulations.

pupil size = details: for Onset of pupil reduction / Pupil reduction at 1 hour (mm) / Range (pupil size) at 3 hours: brimonidine […], pH 7.0 q am
Protocol: The pupil size was measured at the baseline and then 10 minutes and 3 hours after instillation for 3 consecutive weeks.

eye redness = details: brimonidine […]; for Redness (from 0 to 4) (right eye): pH 7.0 to right eye
Description: (§1) All pupil measurements were made using Marco video monitor pupillometry in a darkened room, which was captured via digital image capture and monitor adjustable caliper measurement. Once the dark adapted pupil was digitially captured, the instrument allows superiposition of a caliper with 0.1 mm increments to measure the pupil diameter.

scotopic pupil = details: brimonidine […]; for % reduction of scotopic pupil size (left eye) / Scotopic pupil size (mm) (left eye): contralateral control left eye, pH 7.0 to right eye; for % reduction of scotopic pupil size (right eye) / Scotopic pupil size (mm) (right eye): treated right eye, pH 7.0
Description: as §1

surface vasoconstriction = details: brimonidine 0.01% to 0.05% weight by volume, particularly 0.01% to […]
[3] = Day 2.1 (follows 20 days of consecutive use)

Compound: Cc1ccccc1N1CCN(CCc2nnc3n2CCCC3)CC1 [dapiprazole, 5,6,7,8-tetrahydro-3-[2-(4-o,tolyl-1-piperazinypethyl]-8-triazolo[4,3-a]pyridine hydrochloride]
side effects upon application [1]: redness and frequently chemosis
effect on pupil size in dim light (pupil size in dim light; clinical application): very little effect on pupil size in dim light

Compound: CC[C@@H]1C(=O)OC[C@@H]1Cc1cncn1C [pilocarpine]
side effects upon application [1]: brow ache, ciliary muscle contraction and pseudo myopia (muscle spasm of accommodation), and redness
duration of effect (pupil size in dim light; in vivo): lasts only a few hours
pupil in dim light (pupil size in dim light; when first applied): below 3 mm

Compound: CCCC(=O)N1CCCN(c2nc(N)c3cc(OC)c(OC)cc3n2)CC1 [Bunazosin]
duration before return to baseline (conjunctival hyperemia): about 24 hours
mean conjunctival hyperemia score (conjunctival hyperemia): 1.5 /4
intraocular pressure reduction (intraocular pressure): about 20%
pupil reduction (pupil): about 1.0 mm

Compound: CCOc1ccccc1OCCN[C@H](C)Cc1ccc(OC)c(S(N)(=O)=O)c1 [tamsulosin]
floppy iris syndrome [1]: floppy iris syndrome

Compound: C[C@H](Cc1cc2c(c(C(N)=O)c1)N(CCCO)CC2)NCCOc1ccccc1OCC(F)(F)F [sidolosin]
floppy iris syndrome [1]: floppy iris syndrome

solubility [2]: ≥ 0.1%
Compound: Cc1cccc([C@H](C)c2cnc[nH]2)c1C [dexmedetomidine]

Compound: Brc1c(NC2=NCCN2)ccc2nccnc12.O=C(O)C(O)C(O)C(=O)O [brimonidine, 5-bromo-6-(2-imidazolin-2-ylamino)quinoxaline D-tartrate]
Baseline pupil size (pupil size; baseline before instillation, dark conditions): 6.2 mm
Onset of pupil reduction (pupil size; one eye, Day 1-20 Avg): 10 to 15 min
Pupil reduction at 1 hour (mm) (pupil size; Day 1-20 Avg): ≥ 1 mm
Range (pupil size) at 3 hours (pupil size; Day 1-20 Avg): 3.8-4.2
Onset of pupil reduction (pupil size; [3]): 10 to 15 min
Pupil reduction at 1 hour (mm) (pupil size; [3]): ≥ 1 mm
Range (pupil size) at 3 hours (pupil size; [3]): 3.8-4.2
pupil effect in one individual (pupil dilation; brimonidine […], pH 6.5, one individual who later responded at pH 7.1): no pupil effect
treated patients with pupil modulation (pupil dilation; brimonidine […], pH 7.1, one eye, 4 individuals): 100%
individuals who experienced reduced dilation (pupil dilation; topical brimonidine […], pH 6.5, one eye, 13 individuals, modest indoor lighting): 2 individuals
treated patients with reduced dilation (pupil dilation; topical brimonidine […], pH 6.5, 13 individuals): 15.4%
individuals with pupil modulation (pupil dilation; topical brimonidine […], pH 7.1): 4 out of 4
eye whitening in the right eye (eye redness; pH 7.0, at 0.5 hr, 1.25 hr, 2.25 hr and 3.25 hr): significant eye whitening
Redness (from 0 to 4) (right eye) (eye redness; time 0 hr (baseline)): 2
Redness (from 0 to 4) (right eye) (eye redness; time 0.05 hr): 0
Redness (from 0 to 4) (right eye) (eye redness; time 0.5 hr): 0
Redness (from 0 to 4) (right eye) (eye redness; time 1.25 hr): 0
Redness (from 0 to 4) (right eye) (eye redness; time 2.25 hr): 0
Redness (from 0 to 4) (right eye) (eye redness; time 3.25 hr): 0
pupil modulation in contralateral control (left eye) (scotopic pupil; pH 7.0 applied to right eye): delayed but significant pupil modulation
% reduction of scotopic pupil size (left eye) (scotopic pupil; time 0 hr (baseline)): 0%
Scotopic pupil size (mm) (left eye) (scotopic pupil; time 0 hr (baseline)): 5 mm
% reduction of scotopic pupil size (left eye) (scotopic pupil; time 0.05 hr): 0%
Scotopic pupil size (mm) (left eye) (scotopic pupil; time 0.05 hr): 5 mm
% reduction of scotopic pupil size (left eye) (scotopic pupil; time 0.5 hr): 0%
Scotopic pupil size (mm) (left eye) (scotopic pupil; time 0.5 hr): 5 mm
% reduction of scotopic pupil size (left eye) (scotopic pupil; time 1.25 hr): 0%
Scotopic pupil size (mm) (left eye) (scotopic pupil; time 1.25 hr): 5 mm
% reduction of scotopic pupil size (left eye) (scotopic pupil; time 2.25 hr): 20%
Scotopic pupil size (mm) (left eye) (scotopic pupil; time 2.25 hr): 4 mm
% reduction of scotopic pupil size (left eye) (scotopic pupil; time 3.25 hr): 20%
Scotopic pupil size (mm) (left eye) (scotopic pupil; time 3.25 hr): 4 mm
% reduction of scotopic pupil size (right eye) (scotopic pupil; time 0 hr (baseline)): 0%
Scotopic pupil size (mm) (right eye) (scotopic pupil; time 0 hr (baseline)): 5 mm
% reduction of scotopic pupil size (right eye) (scotopic pupil; time 0.05 hr): 0%
Scotopic pupil size (mm) (right eye) (scotopic pupil; time 0.05 hr): 5 mm
% reduction of scotopic pupil size (right eye) (scotopic pupil; time 0.5 hr): 10%
Scotopic pupil size (mm) (right eye) (scotopic pupil; time 0.5 hr): 4.5 mm
% reduction of scotopic pupil size (right eye) (scotopic pupil; time 1.25 hr): 20%
Scotopic pupil size (mm) (right eye) (scotopic pupil; time 1.25 hr): 4 mm
% reduction of scotopic pupil size (right eye) (scotopic pupil; time 2.25 hr): 30%
Scotopic pupil size (mm) (right eye) (scotopic pupil; time 2.25 hr): 3.5 mm
% reduction of scotopic pupil size (right eye) (scotopic pupil; time 3.25 hr): 30%
Scotopic pupil size (mm) (right eye) (scotopic pupil; time 3.25 hr): 3.5 mm
surface vasoconstriction, redness and whiteness versus equivalent concentration of oxymetazoline (surface vasoconstriction): improved surface vasoconstriction, reduced surface redness, and improved whiter appearance
